Structures can show the parent of a compound that is named as a salt. Where two headings read alike, the source gives them in different places.

The text below walks through data of patent US8124780B2, “Benzimidazole compound” (priority 2005, dated 2012).

This assay has as its system gastric acid secretion. In words: animal or person. The assay is classed as in vivo, dog. The note with it: iv; for inhibition in vivo at 1.6 mg/kg / inhibition in vivo at 0.8 mg/kg: Canis lupus familiaris.
The mark [1] stands for this setting: 24 h, read-out: Persistency of inhibitory effect against gastric acid secretion (%).
The mark [2] stands for this setting: read-out: Inhibitory effect against gastric acid secretion (%).

As for `Cc1c(OC2CCC3(CC2)OCCO3)ccnc1C[S+]([O-])c1nc2ccccc2[nH]1` (centres unmarked) [Example 27, 2-(((4-(1,4-dioxaspiro[4.5]dec-8-yloxy)-3-methylpyridin-2-yl)methyl)sulfinyl)-1H-benzimidazole sodium salt], the inhibition in vivo at 1.6 mg/kg is, setting by setting: under setting [1], 92%; under setting [2], 100%.

For the molecule `Cc1c(OCCC2COC(C)(C)OC2)ccnc1C[S+]([O-])c1nc2ccccc2[nH]1` (centres unmarked) [Example 28, 2-(((4-(2-(2,2-dimethyl-1,3-dioxan-5-yl)ethoxy)-3-methylpyridin-2-yl)methyl)sulfinyl)-1H-benzimidazole sodium salt], the inhibition in vivo at 1.6 mg/kg is, setting by setting: under setting [1], 77%; under setting [2], 94%.

For `CCC12OCC(COc3ccnc(C[S+]([O-])c4nc5ccccc5[n-]4)c3C)(CO1)CO2.[Na+]` (centres unmarked) [Example 29, 2-(((4-((1-ethyl-2,6,7-trioxabicyclo[2.2.2]oct-4-yl)methoxy)-3-methylpyridin-2-yl)methyl)sulfinyl)-1H-benzimidazole sodium salt], for the setting “dog, in vivo, 1.6 mg/kg”, the “Inhibitory effect against gastric acid secretion (%)” value worked out at 100% and the “Persistency of inhibitory effect against gastric acid secretion (%)” value is given as 87%.

On to `Cc1c(OCCC2(C)OCCCO2)ccnc1C[S+]([O-])c1nc2ccccc2[nH]1` (centres unmarked) [Example 30, 2-(((3-methyl-4-(2-(2-methyl-1,3-dioxan-2-yl)ethoxy)pyridin-2-yl)methyl)sulfinyl)-1H-benzimidazole sodium salt], for which, under setting [1], the inhibition in vivo at 0.8 mg/kg amounted to 63% and the inhibition in vivo at 1.6 mg/kg is 95%. Further, under setting [2], the inhibition in vivo at 0.8 mg/kg was determined as 100% and the inhibition in vivo at 1.6 mg/kg turned out to be 100%.

Take `Cc1c(OCCC2COC3(CCC3)OC2)ccnc1C[S+]([O-])c1nc2ccccc2[nH]1` (centres unmarked) [Example 31, 2-(((4-(2-(5,9-dioxaspiro[3.5]non-7-yl)ethoxy)-3-methylpyridin-2-yl)methyl)sulfinyl)-1H-benzimidazole sodium salt]: the inhibition in vivo at 1.6 mg/kg runs as follows: under setting [1], 97%; under setting [2], 100%.

On to `Cc1c(OCC2OCCCO2)ccnc1C[S+]([O-])c1nc2ccccc2[nH]1` (centres unmarked) [Example 32, 2-(((4-(1,3-dioxan-2-ylmethoxy)-3-methylpyridin-2-yl)methyl)sulfinyl)-1H-benzimidazole sodium salt], for which the inhibition in vivo at 1.6 mg/kg was found to be 83% under setting [1] and 100% under setting [2].

With `Cc1c(OCC2(C)OCCCO2)ccnc1C[S+]([O-])c1nc2ccccc2[nH]1` (centres unmarked) [Example 33, 2-(((3-methyl-4-((2-methyl-1,3-dioxan-2-yl)methoxy)pyridin-2-yl)methyl)sulfinyl)-1H-benzimidazole sodium salt], the inhibition in vivo at 1.6 mg/kg under setting [1] was 84% and the inhibition in vivo at 1.6 mg/kg under setting [2] stood at 100%.

For the molecule `Cc1c(OCCC2(C)OCC(C)(C)CO2)ccnc1C[S+]([O-])c1nc2ccccc2[nH]1` (centres unmarked) [Example 34, 2-(((3-methyl-4-(2-(2,5,5-trimethyl-1,3-dioxan-2-yl)ethoxy)pyridin-2-yl)methyl)sulfinyl)-1H-benzimidazole sodium salt], the inhibition in vivo at 1.6 mg/kg by setting is: under setting [1], 78%; under setting [2], 100%.

As for `COCC1(CCOc2ccnc(C[S+]([O-])c3nc4ccccc4[nH]3)c2C)OCCCO1` (centres unmarked) [Example 36, 2-(((4-(2-(2-(methoxymethyl)-1,3-dioxan-2-yl)ethoxy)-3-methylpyridin-2-yl)methyl)sulfinyl)-1H-benzimidazole sodium salt], the inhibition in vivo at 1.6 mg/kg is, setting by setting: under setting [1], 90%; under setting [2], 100%.

In the case of `CCC1(CCOc2ccnc(C[S+]([O-])c3nc4ccccc4[nH]3)c2C)OCCO1` (centres unmarked) [Example 39, 2-(((4-(2-(2-ethyl-1,3-dioxolan-2-yl)ethoxy)-3-methylpyridin-2-yl)methyl)sulfinyl)-1H-benzimidazole sodium salt], the inhibition in vivo at 1.6 mg/kg under setting [1] came out at 86% and the inhibition in vivo at 1.6 mg/kg under setting [2] was found to be 100%.

Consider `CCC1(COc2ccnc(C[S+]([O-])c3nc4ccccc4[nH]3)c2C)OCCO1` (centres unmarked) [Example 40, 2-(((4-((2-ethyl-1,3-dioxolan-2-yl)methoxy)-3-methylpyridin-2-yl)methyl)sulfinyl)-1H-benzimidazole sodium salt], for which the inhibition in vivo at 0.8 mg/kg turned out to be 66% under setting [1] and 99% under setting [2]. The inhibition in vivo at 1.6 mg/kg is, setting by setting: under setting [1], 92%; under setting [2], 100%.

In the case of `CCC1(CCOc2ccnc(C[S+]([O-])c3nc4c(C)cccc4[nH]3)c2C)OCCO1` (centres unmarked) [Example 41, 2-(((4-(2-(2-ethyl-1,3-dioxolan-2-yl)ethoxy)-3-methylpyridin-2-yl)methyl)sulfinyl)-4-methyl-1H-benzimidazole sodium salt], the inhibition in vivo at 1.6 mg/kg by setting is: under setting [1], 85%; under setting [2], 100%.

As for `CCC1(COc2ccnc(C[S+]([O-])c3nc4ccccc4[nH]3)c2C)OCCCO1` (centres unmarked) [Example 42, 2-(((4-((2-ethyl-1,3-dioxan-2-yl)methoxy)-3-methylpyridin-2-yl)methyl)sulfinyl)-1H-benzimidazole sodium salt], the inhibition in vivo at 0.8 mg/kg is 72% under setting [1] and 60% under setting [2].

With `Cc1c(OCC2OCC(F)(F)CO2)ccnc1C[S+]([O-])c1nc2ccccc2[nH]1` (centres unmarked) [Example 46, 2-(((4-((5,5-difluoro-1,3-dioxan-2-yl)methoxy)-3-methylpyridin-2-yl)methyl)sulfinyl)-1H-benzimidazole sodium salt], the inhibition in vivo at 0.8 mg/kg was 95% under setting [1] and 100% under setting [2].

Consider `Cc1ccc2[nH]c([S+]([O-])Cc3nccc(OCCC4COC(C)(C)O4)c3C)nc2c1` (centres unmarked) [Example 47, 2-(((4-(2-(2,2-dimethyl-1,3-dioxolan-4-yl)ethoxy)-3-methylpyridin-2-yl)methyl)sulfinyl)-5-methyl-1H-benzimidazole sodium salt], for which the inhibition in vivo at 1.6 mg/kg reads like this: under setting [1], 87%; under setting [2], 100%.

As to `[O-][S+](Cc1cc(OCC2OCC3(CC3)CO2)ccn1)c1nc2ccccc2[nH]1` (centres unmarked) [Example 50, 2-(((4-(5,7-dioxaspiro[2.5]oct-6-ylmethoxy)pyridin-2-yl)methyl)sulfinyl)-1H-benzimidazole sodium salt], the inhibition in vivo at 0.8 mg/kg runs as follows: under setting [1], 80%; under setting [2], 79%.

For the molecule `CCc1c(OCC2COC(C)(C)O2)ccnc1C[S+]([O-])c1nc2ccccc2[nH]1` (centres unmarked) [Example 51, 2-(((4-((2,2-dimethyl-1,3-dioxolan-4-yl)methoxy)-3-ethylpyridin-2-yl)methyl)sulfinyl)-1H-benzimidazole sodium salt], the inhibition in vivo at 1.6 mg/kg reads like this: under setting [1], 83%; under setting [2], 100%.

For the molecule `Cc1c(OCC2COC(C)(C)O2)ccnc1C[S+]([O-])c1nc2cc(F)ccc2[nH]1` (centres unmarked) [Example 52, 2-(((4-((2,2-dimethyl-1,3-dioxolan-4-yl)methoxy)-3-methylpyridin-2-yl)methyl)sulfinyl)-5-fluoro-1H-benzimidazole sodium salt], the inhibition in vivo at 1.6 mg/kg reads like this: under setting [1], 87%; under setting [2], 100%.

With `Cc1c(OCC2COCOC2)ccnc1C[S+]([O-])c1nc2ccccc2[nH]1` (centres unmarked) [Example 53, 2-(((4-(1,3-dioxan-5-ylmethoxy)-3-methylpyridin-2-yl)methyl)sulfinyl)-1H-benzimidazole sodium salt], the inhibition in vivo at 0.8 mg/kg runs as follows: under setting [1], 87%; under setting [2], 99%.

On to `Cc1ccc2[nH]c([S+]([O-])Cc3nccc(OCC4COC(C)(C)OC4)c3C)nc2c1` (centres unmarked) [Example 55, 2-(((4-((2,2-dimethyl-1,3-dioxan-5-yl)methoxy)-3-methylpyridin-2-yl)methyl)sulfinyl)-5-methyl-1H-benzimidazole sodium salt], for which the inhibition in vivo at 0.8 mg/kg is, setting by setting: under setting [1], 75%; under setting [2], 83%.

For the molecule `Cc1cnc(C[S+]([O-])c2nc3cc(F)ccc3[nH]2)c(C)c1OCC1COC(C)(C)OC1` (centres unmarked) [Example 56, 2-(((4-((2,2-dimethyl-1,3-dioxan-5-yl)methoxy)-3,5-dimethylpyridin-2-yl)methyl)sulfinyl)-5-fluoro-1H-benzimidazole sodium salt], the inhibition in vivo at 0.8 mg/kg under setting [1] came out at 74% and the inhibition in vivo at 0.8 mg/kg under setting [2] was found to be 84%.

For `[O-][S+](Cc1cc(OCC2COC3(CCC3)OC2)ccn1)c1nc2ccccc2[nH]1` (centres unmarked) [Example 57, 2-(((4-(5,9-dioxaspiro[3.5]non-7-ylmethoxy)pyridin-2-yl)methyl)sulfinyl)-1H-benzimidazole sodium salt], the inhibition in vivo at 0.8 mg/kg by setting is: under setting [1], 83%; under setting [2], 98%.

Take `[O-][S+](Cc1cc(OCC2COC3(CCCC3)OC2)ccn1)c1nc2ccccc2[nH]1` (centres unmarked) [Example 58, 2-(((4-(6,10-dioxaspiro[4.5]dec-8-ylmethoxy)pyridin-2-yl)methyl)sulfinyl)-1H-benzimidazole sodium salt]: the inhibition in vivo at 0.8 mg/kg runs as follows: under setting [1], 77%; under setting [2], 95%.

For `[O-][S+](Cc1cc(OCC2COC(CF)(CF)OC2)ccn1)c1nc2ccccc2[nH]1` (centres unmarked) [Example 59, 2-(((4-((2,2-bis(fluoromethyl)-1,3-dioxan-5-yl)methoxy)pyridin-2-yl)methyl)sulfinyl)-1H-benzimidazole sodium salt], the inhibition in vivo at 0.8 mg/kg reads like this: under setting [1], 77%; under setting [2], 89%.

With `[O-][S+](Cc1cc(OCC2COC3(CCOCC3)OC2)ccn1)c1nc2ccccc2[nH]1` (centres unmarked) [Example 60, 2-(((4-(1,5,9-trioxaspiro[5.5]undec-3-ylmethoxy)pyridin-2-yl)methyl)sulfinyl)-1H-benzimidazole sodium salt], the inhibition in vivo at 0.8 mg/kg amounted to 74% under setting [1] and 89% under setting [2].

Regarding `Cc1c(OCC2COc3ccccc3O2)ccnc1C[S+]([O-])c1nc2ccccc2[nH]1` (centres unmarked) [Example 61, 2-(((4-(2,3-dihydro-1,4-benzodioxin-2-ylmethoxy)-3-methylpyridin-2-yl)methyl)sulfinyl)-1H-benzimidazole sodium salt], the inhibition in vivo at 1.6 mg/kg by setting is: under setting [1], 90%; under setting [2], 100%.
